Data: the Deep4Chem optical property database
Where “and” joins values, the source holds several entries; their conditions need not be identical. Equal entries are not always repeated.

experiment: solvent given as SMILES; settings: in C1CCCCC1

emission maximum	SMILES
380 nm	Cc1ccc(/C=C(\c2ccccc2)c2nc3ccccc3s2)cc1
412 nm	N#Cc1cc2ccccc2oc1=O
459.88 nm	CC(C)(C)C#Cc1ccc2c3cccc4cccc(c5cccc1c52)c43
425 nm	C[Si](C)(c1c2ccccc2cc2ccccc12)[Si](C)(C)c1c2ccccc2cc2ccccc12
368 nm	CCCC1(CCC)c2cc(-c3ccc(C(C)(C)CC)cc3)ccc2-c2ccc(-c3ccc(C(C)(C)CC)cc3)cc21

same assay, conditions: in C1CCOC1

emission maximum	SMILES
349 nm	N#Cc1ccc2[nH]ccc2c1
449 nm	C(=C(c1ccccc1)c1ccccc1)c1ccc(-c2ccc(-c3nc4c5ccccc5c5ccccc5c4n3-c3cccc(-c4ccc(C=C(c5ccccc5)c5ccccc5)cc4)c3)cc2)cc1
456 nm	COc1cc2c(cc1-c1ccncc1)Cc1c3c(c4c(c1-2)-c1cc(OC)c(-c2ccncc2)cc1C4)C(=O)N(CCC(C)C)C3=O
433 nm	O=S1(=O)C(c2ccsc2)=C(c2ccsc2)c2ccccc21
409 nm	N#Cc1cc2ccccc2oc1=O
410 nm	FP(F)(c1c2ccccc2cc2ccccc12)(c1c2ccccc2cc2ccccc12)c1c2ccccc2cc2ccccc12
668 nm	COc1cc(OC)cc(C2=C3C(C)=C(I)C(C)=[N+]3[B-](F)(F)n3c(/C=C/c4c[nH]c5ccccc45)c(I)c(C)c32)c1

SMILES	emission maximum
CC1(C)c2ccccc2N(c2ccc3c(c2)C(C)(C)c2cc(N4c5ccccc5C(C)(C)c5ccccc54)ccc2S3(=O)=O)c2ccccc21	473.1 nm
CC(C)(C)c1ccc(C2=CC(c3ccccc3)=[N+]3C2=Nc2c(-c4ccc(C(C)(C)C)cc4)cc(-c4ccccc4)n2[B-]3(F)F)cc1	681 nm

same assay, conditions: in C1COCCO1

emission maximum	SMILES
348 nm	N#Cc1ccc2[nH]ccc2c1
381 nm	N#Cc1nc2cnc(N)nc2n1Cc1ccccc1
403.62 nm	Cc1c(OCC(=O)O)cc2c3c([nH]c2c1C)C(=O)CCC3

same assay, conditions: in CC#N

emission maximum	SMILES
362 nm	N#Cc1ccc2[nH]ccc2c1
494 nm	O=C(O)c1ccccc1-c1nc(-c2ccccc2)c2ccccn12
561 nm	Cc1cc(O)c(C(=O)/C=C/c2ccc(N(C)C)cc2)c(=O)o1
464 nm	COc1ccc2cc(/C=C/c3ccccc3)c(=O)oc2c1
381 nm	N#Cc1nc2cnc(N)nc2n1Cc1ccccc1
407 nm	N#Cc1cc2ccccc2oc1=O
609 nm	COC(=O)/C=C/c1sc(-c2ccc(N(C)C)cc2)cc1N
419.17 nm	Cc1c(OCC(=O)O)cc2c3c([nH]c2c1C)C(=O)CCC3
408 nm	c1ccc2c(c1)ncc1ccc3cnc4ccccc4c3c12
425 nm	C[Si](C)(c1c2ccccc2cc2ccccc12)[Si](C)(C)c1c2ccccc2cc2ccccc12
509 nm	Oc1ccc2ccccc2c1/C=N/c1cc2ccccc2cc1/N=C/c1c(O)ccc2ccccc12

SMILES	emission maximum
CC1(C)c2ccccc2N(c2ccc3c(c2)C(C)(C)c2cc(N4c5ccccc5C(C)(C)c5ccccc54)ccc2S3(=O)=O)c2ccccc21	526.32 nm
COc1cc(OC)cc(C2=[O+][B-](F)(F)OC(c3ccc4ccccc4c3)=C2)c1	521.21 nm
COc1ccc(-c2csc(-c3ccncc3)n2)cc1	560 nm

same assay, conditions: in CC(C)=O

SMILES	emission maximum
COc1cc(OC)cc(C2=[O+][B-](F)(F)OC(c3ccc4ccccc4c3)=C2)c1	521.21 nm

same assay, conditions: in CC(C)O

emission maximum	SMILES
362 nm	N#Cc1ccc2[nH]ccc2c1

same assay, conditions: in CCCCCC

SMILES	emission maximum
COc1cc(OC)cc(C2=[O+][B-](F)(F)OC(c3ccc4ccccc4c3)=C2)c1	418.89 nm
c1cc2ccc3ccc(-n4c5ccccc5c5ccccc54)c4ccc(c1)c2c34	407 nm

same assay, conditions: in CCO

emission maximum	SMILES
364 nm	N#Cc1ccc2[nH]ccc2c1
398 nm	c1cc2ccc3ccc(-n4c5ccccc5c5ccccc54)c4ccc(c1)c2c34
592 nm	CCOC(=O)CCCCCn1c2ccc(OC)cc2c(=O)c2cc3c(cc21)c(=O)c1cc(OC)ccc1n3CCCCCC(=O)OCC
461.12 nm	Cc1c(OCC(=O)O)cc2c3c([nH]c2c1C)C(=O)CCC3

SMILES	emission maximum
COc1ccc(-c2csc(-c3ccncc3)n2)cc1	457 nm

same assay, conditions: in CCOC(C)=O

emission maximum	SMILES
398 nm	c1cc2ccc3ccc(-n4c5ccccc5c5ccccc54)c4ccc(c1)c2c34
410 nm	N#Cc1cc2ccccc2oc1=O
438 nm	O=Cc1cc2c(cc3ccc4cccc5ccc2c3c45)[nH]1

same assay, conditions: in CN(C)C=O

SMILES	emission maximum
COc1ccc(-c2csc(-c3ccncc3)n2)cc1	451 nm
CC(C)(C)c1ccc2c(c1)[nH]c1c3[nH]c4cc(C(C)(C)C)ccc4c3c3nsnc3c21	507 nm
COc1ccc2c(c1)[nH]c1c3[nH]c4cc(OC)ccc4c3c3nsnc3c21	544 nm

same assay, conditions: in CO

emission maximum	SMILES
367 nm	N#Cc1ccc2[nH]ccc2c1
410 nm	Cc1ccc(/C=C(\c2ccccc2)c2nc3ccccc3s2)cc1
398 nm	N#Cc1nc2cnc(N)nc2n1Cc1ccccc1

same assay, conditions: in CS(C)=O

emission maximum	SMILES
371 nm	N#Cc1ccc2[nH]ccc2c1
666 nm	Cc1ccc(-c2c3nc(c(-c4ccc(C)cc4)c4ccc([nH]4)c(-c4ccc(C)cc4)c4nc(c(-c5ccc(C)cc5)c5ccc2[nH]5)C=C4N2CCOCC2)C=C3)cc1
405 nm	N#Cc1cc2ccccc2oc1=O
427.12 nm	Cc1c(OCC(=O)O)cc2c3c([nH]c2c1C)C(=O)CCC3
676 nm	COc1cc(OC)cc(C2=C3C(C)=C(I)C(C)=[N+]3[B-](F)(F)n3c(/C=C/c4c[nH]c5ccccc45)c(I)c(C)c32)c1

SMILES	emission maximum
COc1ccc(-c2csc(-c3ccncc3)n2)cc1	455 nm

same assay, conditions: in Cc1ccccc1

SMILES	emission maximum
CC1(C)c2ccccc2N(c2ccc3c(c2)C(C)(C)c2cc(N4c5ccccc5C(C)(C)c5ccccc54)ccc2S3(=O)=O)c2ccccc21	451.46 nm and 453.62 nm
